# Results from ChEMBL document CHEMBL5137052, “Identification of dihydroquinolizinone derivatives with cyclic ether moieties as new anti-HBV agents” (Eur J Med Chem, 2022).
# What was measured:
# Hepatitis B virus [1] = assay: Antiviral activity against HBV infected in human HepG2.2.15 cells assessed as reduction in HBsAg level in cellular supernatant by luminescence based microplate reader analysis; type: functional, organism-based
# [2] = Cytotoxicity against human HepG2.2.15 cells assessed as reduction in cell viability incubated for 6 days by CCK-8 assay; type: toxicity, cell-based, HepG2 2.2.15; details: for CC50 at 144 h: time 6 day
# Hepatitis B virus [3] = assay: Antiviral activity against HBV infected in human HepG2.2.15 cells assessed as reduction in HBeAg level in cellular supernatant by luminescence based microplate reader analysis; type: functional, organism-based
# Hepatitis B virus [4] = assay: Antiviral activity against HBV infected in human HepG2.2.15 cells assessed as reduction in intracellular core HBV DNA level incubated for 6 days by qPCR analysis; type: functional, organism-based; details: HepG2.2.15, 144 h
# [5] = Neurotoxicity against NGF induced rat PC-12 cells assessed as morphological changes by measuring appearance of shrunken cells at 10 uM incubated for 48 hrs by phase contrast microscopic analysis; type: toxicity, cell-based; details: pc-12, 48 h
# [6] = Tmax in BALB/c mouse at 10 mg/kg, po measured up to 24 hrs by HPLC analysis; type: ADME, organism-based; details: in vivo
# [7] = MRT (0 to t) in BALB/c mouse at 10 mg/kg, po measured up to 24 hrs by HPLC analysis; type: ADME, organism-based; details: in vivo
# [8] = Elimination half life in BALB/c mouse at 10 mg/kg, po measured up to 24 hrs by HPLC analysis; type: ADME, organism-based; details: in vivo, read-out: beta t1/2 (converted)
# [9] = Cmax in BALB/c mouse at 10 mg/kg, po measured up to 24 hrs by HPLC analysis; type: ADME, organism-based; set-up: dose 10 mg/kg, time < 24 hrs, route po; details: in vivo
# [10] = AUC (0 to t) in BALB/c mouse at 10 mg/kg, po measured up to 24 hrs by HPLC analysis; type: ADME, organism-based; set-up: dose 10 mg/kg, time < 24 hrs, route po; details: in vivo
Structure (SMILES),IC50 (Hepatitis B virus [1]),CC50 at 144 h [2],IC50 (Hepatitis B virus [3]),IC50 (Hepatitis B virus [4]),further results
COc1cc2c(cc1OCC1COc3cc(Br)ccc3O1)CC(C(C)C)n1cc(C(=O)O)c(=O)cc1-2 (stereo not given),34.3 nM,34700 nM,> 1000 nM,36.9 nM,
COc1ccc2c(c1)OC(COc1cc3c(cc1OC)-c1cc(=O)c(C(=O)O)cn1C(C(C)C)C3)CO2 (stereo not given),1.7 nM,31900 nM,> 1000 nM,8.1 nM,
COc1cc2c(cc1OC[C@@H]1COc3cccnc3O1)C[C@@H](C(C)C)n1cc(C(=O)O)c(=O)cc1-2,,,,,EC50 (Hepatitis B virus [1]): 6.3 nM; Activity [5]: Toxic; EC50 (Hepatitis B virus [3]): 70 nM; EC50 (Hepatitis B virus [4]): 86.3 nM
COc1cc2c(cc1OC[C@H]1CCCO1)C[C@@H](C(C)C)n1cc(C(=O)O)c(=O)cc1-2,,,,,EC50 (Hepatitis B virus [1]): 5.1 nM; Activity [5]: Toxic; EC50 (Hepatitis B virus [3]): 220 nM; EC50 (Hepatitis B virus [4]): 2.1 nM
COc1cc2c(cc1OCC1CCCO1)CC(C(C)C)n1cc(C(=O)O)c(=O)cc1-2 (stereo not given),509 nM,> 50000 nM,27 nM,1.6 nM,Tmax [6]: 19.8 min; MRT last at 24 h [7]: 65.4 min; half-life [8]: 39.6 min; Cmax [9]: 8840 nM; AUC(0-t) at 24 h [10]: 10.4 µM·h
COc1cc2c(cc1OCc1ccc3c(c1)OCCO3)CC(C(C)C)n1cc(C(=O)O)c(=O)cc1-2 (stereo not given),0.2 nM,34700 nM,10.2 nM,13.4 nM,
COc1cc2c(cc1OCC1COc3ccc(Cl)cc3O1)CC(C(C)C)n1cc(C(=O)O)c(=O)cc1-2 (stereo not given),7.7 nM,11600 nM,86.5 nM,5.7 nM,
COc1cc2c(cc1OCC1COc3ccc(C)cc3O1)CC(C(C)C)n1cc(C(=O)O)c(=O)cc1-2 (stereo not given),7.5 nM,34700 nM,328 nM,17.9 nM,
COc1cc2c(cc1OCC1COCCO1)CC(C(C)C)n1cc(C(=O)O)c(=O)cc1-2 (stereo not given),5.1 nM,> 50000 nM,> 1000 nM,18.2 nM,
COc1cc2c(cc1OC[C@H]1COc3cccnc3O1)C[C@@H](C(C)C)n1cc(C(=O)O)c(=O)cc1-2,,,,,EC50 (Hepatitis B virus [1]): 1.4 nM; Activity [5]: Toxic; EC50 (Hepatitis B virus [3]): 104 nM; EC50 (Hepatitis B virus [4]): 1.4 nM
COc1cc2c(cc1OCC1COc3ccc([N+](=O)[O-])cc3O1)CC(C(C)C)n1cc(C(=O)O)c(=O)cc1-2 (stereo not given),4.6 nM,50000 nM,18.2 nM,16.5 nM,
COc1cc2c(cc1OCC1COc3c(Cl)cccc3O1)CC(C(C)C)n1cc(C(=O)O)c(=O)cc1-2 (stereo not given),1.2 nM,11600 nM,21 nM,4.2 nM,
COc1cc2c(cc1OC[C@H]1CCCO1)C[C@H](C(C)C)n1cc(C(=O)O)c(=O)cc1-2,,,,,EC50 (Hepatitis B virus [1]): 3.5 nM; EC50 (Hepatitis B virus [3]): 3380 nM; EC50 (Hepatitis B virus [4]): 37.5 nM
COc1cc2c(cc1OCc1ccc3c(c1)OCO3)CC(C(C)C)n1cc(C(=O)O)c(=O)cc1-2 (stereo not given),1.6 nM,> 50000 nM,66.7 nM,5 nM,Tmax [6]: 49.8 min; MRT last at 24 h [7]: 101 min; half-life [8]: 82.2 min; Cmax [9]: 2180 nM; AUC(0-t) at 24 h [10]: 4.46 µM·h
COc1cc2c(cc1OC[C@@H]1CCCO1)C[C@H](C(C)C)n1cc(C(=O)O)c(=O)cc1-2,,,,,EC50 (Hepatitis B virus [1]): 1.2 nM; EC50 (Hepatitis B virus [3]): 2010 nM; EC50 (Hepatitis B virus [4]): 119 nM
COc1cc2c(cc1OC[C@@H]1COc3cccnc3O1)C[C@H](C(C)C)n1cc(C(=O)O)c(=O)cc1-2,,,,,EC50 (Hepatitis B virus [1]): 882 nM; EC50 (Hepatitis B virus [3]): 3190 nM; EC50 (Hepatitis B virus [4]): 882 nM
COc1cc2c(cc1OCC1COc3cccnc3O1)CC(C(C)C)n1cc(C(=O)O)c(=O)cc1-2 (stereo not given),1.9 nM,> 50000 nM,94.9 nM,0.5 nM,Tmax [6]: 30 min; MRT last at 24 h [7]: 52.8 min; half-life [8]: 43.2 min; Cmax [9]: 2910 nM; AUC(0-t) at 24 h [10]: 2.38 µM·h

Structure (SMILES),IC50 (Hepatitis B virus [1]),CC50 at 144 h [2],IC50 (Hepatitis B virus [3]),IC50 (Hepatitis B virus [4]),further results
COc1cc2c(cc1OC[C@H]1COc3cccnc3O1)C[C@H](C(C)C)n1cc(C(=O)O)c(=O)cc1-2,,,,,EC50 (Hepatitis B virus [1]): 3080 nM; EC50 (Hepatitis B virus [3]): 12800 nM; EC50 (Hepatitis B virus [4]): 3080 nM
COc1cc2c(cc1OCc1ccc3c(c1)OCO3)C[C@H](C(C)C)n1cc(C(=O)O)c(=O)cc1-2,,,,,EC50 (Hepatitis B virus [1]): 239 nM; EC50 (Hepatitis B virus [3]): 2030 nM; EC50 (Hepatitis B virus [4]): 124 nM
COc1cc2c(cc1OCC1COc3ccc(Br)cc3O1)CC(C(C)C)n1cc(C(=O)O)c(=O)cc1-2 (stereo not given),24.5 nM,11600 nM,127 nM,13.4 nM,
COc1cc2c(cc1OC(C)c1ccc3c(c1)OCO3)CC(C(C)C)n1cc(C(=O)O)c(=O)cc1-2 (stereo not given),1.2 nM,> 50000 nM,> 1000 nM,181 nM,
COc1cc2c(cc1OCC1COc3cc(F)ccc3O1)CC(C(C)C)n1cc(C(=O)O)c(=O)cc1-2 (stereo not given),18.4 nM,11600 nM,22.7 nM,15.5 nM,
COc1cc2c(cc1OCCC1COc3ccccc3O1)CC(C(C)C)n1cc(C(=O)O)c(=O)cc1-2 (stereo not given),18.4 nM,11600 nM,16.4 nM,1.2 nM,
COc1cc2c(cc1OCC1CCOC1)CC(C(C)C)n1cc(C(=O)O)c(=O)cc1-2 (stereo not given),1.1 nM,> 50000 nM,56.2 nM,0.6 nM,
COc1cc2c(cc1OCC1COc3cc(Cl)ccc3O1)CC(C(C)C)n1cc(C(=O)O)c(=O)cc1-2 (stereo not given),3.7 nM,10600 nM,39.5 nM,9.1 nM,
COc1ccc(COc2cc3c(cc2OC)-c2cc(=O)c(C(=O)O)cn2C(C(C)C)C3)cc1OC (stereo not given),1.1 nM,> 50000 nM,158 nM,11.2 nM,
COCCCOc1cc2c(cc1OC)-c1cc(=O)c(C(=O)O)cn1[C@@H](C(C)C)C2,,,,,EC50 (Hepatitis B virus [1]): 928 nM; EC50 (Hepatitis B virus [3]): 3270 nM; EC50 (Hepatitis B virus [4]): 75.8 nM
COc1cc2c(cc1OCC1COc3ccccc3O1)CC(C(C)C)n1cc(C(=O)O)c(=O)cc1-2 (stereo not given),1.5 nM,,2 nM,12.1 nM,IC50 at 6 days [2]: 21500 nM
COc1cc2c(cc1OCC1COc3cccc(Cl)c3O1)CC(C(C)C)n1cc(C(=O)O)c(=O)cc1-2 (stereo not given),3.4 nM,11600 nM,53.2 nM,4.3 nM,
COc1cc2c(cc1OCC1COc3ccc(F)cc3O1)CC(C(C)C)n1cc(C(=O)O)c(=O)cc1-2 (stereo not given),0.2 nM,34700 nM,15.4 nM,5.7 nM,Tmax [6]: 60 min; MRT last at 24 h [7]: 112 min; half-life [8]: 101 min; Cmax [9]: 1440 nM; AUC(0-t) at 24 h [10]: 3.38 µM·h
COc1cc2c(cc1OCC1COc3c(F)cccc3O1)CC(C(C)C)n1cc(C(=O)O)c(=O)cc1-2 (stereo not given),1.5 nM,16700 nM,20.6 nM,29 nM,
COc1cc2c(cc1OCC1COc3cc(C)ccc3O1)CC(C(C)C)n1cc(C(=O)O)c(=O)cc1-2 (stereo not given),3.5 nM,11600 nM,179 nM,10.1 nM,
COc1cc2c(cc1OCC1COc3cccc(F)c3O1)CC(C(C)C)n1cc(C(=O)O)c(=O)cc1-2 (stereo not given),1.6 nM,21500 nM,57.3 nM,37.2 nM,
COc1ccc2c(c1)OCC(COc1cc3c(cc1OC)-c1cc(=O)c(C(=O)O)cn1C(C(C)C)C3)O2 (stereo not given),403 nM,> 50000 nM,> 1000 nM,52 nM,
